Tests used:
Type in all cases: biochemical
[1] = biological target: T1, thrombin (Homo sapiens, UniProt P00734); assay: Determination of selectivity: thrombin inhibition (chromogenic substrate GPR); conditions: fold selectivity for FXIIa over thrombin (human); category
T1 construct: FXa (5 nM) and thrombin (5 nM)
Procedure, shortened: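 Thrombin (5 nM) preincubated with increasing compound concentrations (top 500 μM, 5% DMSO) 10 min at 37 °C in 50 mM Tris, 137 mM NaCl pH 7.4, then GPR chromogenic substrate at its KM. pNA release read kinetically at 405 nm for 3 h at 37 °C. IC50 from initial rates, converted to Ki via Cheng–Prusoff.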

[2] = biological target: FXa (Homo sapiens, UniProt P00742); assay: Determination of selectivity: FXa inhibition (chromogenic substrate S2765); conditions: fold selectivity for FXIIa over FXa (human); category
Procedure, shortened: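 FXa (5 nM) preincubated with increasing compound (top 500 μM) for 10 mins at 37° C in 50 mM Tris, 137 mM NaCl pH 7.4, 5% DMSO, then S2765 added at its KM. Absorbance at 405 nm followed kinetically for 3 hours; IC50 from initial rates, converted to Ki by Cheng-Prusoff.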

[3] = biological target: T2, FXIIa (Homo sapiens, UniProt P00748); assay: Determination of Factor XIIa inhibition (chromogenic substrate S-2302); conditions: human FXIIa alpha, Ki category
T2 construct: FXIIa alpha
T2 sequence (P00748 373-615 limits assumed): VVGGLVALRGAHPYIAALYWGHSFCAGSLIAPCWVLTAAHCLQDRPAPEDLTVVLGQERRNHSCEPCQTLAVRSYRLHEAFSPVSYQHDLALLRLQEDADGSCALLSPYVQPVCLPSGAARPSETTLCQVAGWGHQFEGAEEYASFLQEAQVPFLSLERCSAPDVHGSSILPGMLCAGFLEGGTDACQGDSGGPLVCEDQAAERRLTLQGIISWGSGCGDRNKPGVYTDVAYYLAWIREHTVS
T2 sequence (P00748 20-372 partner limits assumed): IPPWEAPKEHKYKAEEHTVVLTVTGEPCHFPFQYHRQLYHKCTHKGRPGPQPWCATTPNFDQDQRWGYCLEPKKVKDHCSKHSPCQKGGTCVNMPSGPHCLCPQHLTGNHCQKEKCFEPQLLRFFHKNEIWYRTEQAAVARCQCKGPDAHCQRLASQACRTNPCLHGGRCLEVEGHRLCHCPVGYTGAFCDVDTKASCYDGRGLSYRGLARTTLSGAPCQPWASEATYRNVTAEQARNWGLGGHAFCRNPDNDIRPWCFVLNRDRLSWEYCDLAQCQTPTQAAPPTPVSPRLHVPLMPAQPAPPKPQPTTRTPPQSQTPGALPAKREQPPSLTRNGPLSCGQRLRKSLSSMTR
Procedure, shortened: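 Compound preincubated with 10 nM FXIIa for 10 min at 37° C in 50 mM Tris, 137 mM NaCl, pH 7.4, 5% DMSO, top concentration 500 μM; S-2302 added at Km. pNA release followed at 405 nm for 3 h; IC50 from initial rates, converted to Ki via Ki = IC50/(1+[S]/Km).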

FXa, sequence (P00742 235-488 limits assumed): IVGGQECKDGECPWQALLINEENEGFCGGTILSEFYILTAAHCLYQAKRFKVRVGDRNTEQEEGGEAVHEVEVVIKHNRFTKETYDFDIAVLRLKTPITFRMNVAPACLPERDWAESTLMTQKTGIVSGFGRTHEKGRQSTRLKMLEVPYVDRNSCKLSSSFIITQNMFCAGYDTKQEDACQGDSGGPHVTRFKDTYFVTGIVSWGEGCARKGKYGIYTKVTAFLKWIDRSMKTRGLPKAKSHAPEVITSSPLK
FXa, sequence (P00742 41-179 partner limits assumed): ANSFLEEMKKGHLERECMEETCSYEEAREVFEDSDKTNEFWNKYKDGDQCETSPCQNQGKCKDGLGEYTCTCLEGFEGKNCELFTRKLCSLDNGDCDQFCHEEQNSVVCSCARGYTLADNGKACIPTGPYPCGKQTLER

SMILES | FXa (human)/FXIIa alpha (human) [2] | Ki [3] [nM] | Thrombin (human)/FXIIa alpha (human) [1]
Cn1ncc2cc(CNC(=O)[C@@H]3C[C@@H](Cc4ccccc4C(F)(F)F)CN3C(=O)[C@@H]3NCCC[C@@H]3C(=O)N3CCCC3)ccc21 [Example M05809, (2S,4R)-N-((1-methyl-1H-indazol-5-yl)methyl)-1-((2R,3S)-3-(pyrrolidine-1-carbonyl)piperidine-2-carbonyl)-4-(2-(trifluoromethyl)benzyl)pyrrolidine-2-carboxamide] | ∘∘∘ | 200 to 800 | +++ (fold selectivity values greater than 100)
COc1nn(C)c2ccc(CNC(=O)[C@@H]3C[C@@H](Cc4ccc(C)cc4)CN3C(=O)[C@@H]3NCCC[C@@H]3C(=O)N3CCCC3)cc12 [Example M05810, (2S,4R)-N-((3-methoxy-1-methyl-1H-indazol-5-yl)methyl)-4-(4-methylbenzyl)-1-((2R,3S)-3-(pyrrolidine-1-carbonyl)piperidine-2-carbonyl)pyrrolidine-2-carboxamide] | ∘∘ | 800 to 5000 | ++ (a fold selectivity value of 10 to 100)
Cn1ncc2cc(CNC(=O)[C@@H]3C[C@@H](Cc4ccncc4)CN3C(=O)[C@@H]3NCCC[C@@H]3C(=O)N3CCCC3)ccc21 [Example M05811, (2S,4R)-N-((1-methyl-1H-indazol-5-yl)methyl)-4-(pyridin-4-ylmethyl)-1-((2R,3S)-3-(pyrrolidine-1-carbonyl)piperidine-2-carbonyl)pyrrolidine-2-carboxamide] | ∘∘∘ | 800 to 5000 | ++ (a fold selectivity value of 10 to 100)
Cn1ncc2cc(CNC(=O)[C@@H]3C[C@@H](Cc4cccc(C(F)(F)F)c4)CN3C(=O)[C@@H]3NCCC[C@@H]3C(=O)N3CCCC3)ccc21 [Example M05836, (2S,4R)-N-((1-methyl-1H-indazol-5-yl)methyl)-1-((2R,3S)-3-(pyrrolidine-1-carbonyl)piperidine-2-carbonyl)-4-(3-(trifluoromethyl)benzyl)pyrrolidine-2-carboxamide] | ∘∘∘ | 800 to 5000 | +++ (fold selectivity values greater than 100)
Cc1ccc(C[C@@H]2C[C@@H](C(=O)NCC3CCn4c(nnc4C(F)(F)F)C3)N(C(=O)[C@@H]3NCCC[C@@H]3C(=O)N3CCCC3)C2)cc1 (stereo partly drawn) [Example M05851] | ∘∘∘ | 800 to 5000 | +++ (fold selectivity values greater than 100)
Cn1ncc2cc(CNC(=O)[C@@H]3C[C@@H](Cc4ccc(Cl)cc4)CN3C(=O)[C@@H]3NCCC[C@@H]3C(=O)N3CCCC3)ccc21 [Example M05854, (2S,4R)-4-(4-chlorobenzyl)-N-((1-methyl-1H-indazol-5-yl)methyl)-1-((2R,3S)-3-(pyrrolidine-1-carbonyl)piperidine-2-carbonyl)pyrrolidine-2-carboxamide] | ∘∘∘ | 200 to 800 | +++ (fold selectivity values greater than 100)
Cc1ccc(C[C@@H]2C[C@@H](C(=O)NCc3ccn4c(C)nnc4c3)N(C(=O)[C@@H]3NCCC[C@@H]3C(=O)N3CCCC3)C2)cc1 [Example M05855, (2S,4R)-N-((3-methyl-[1,2,4]triazolo[4,3-a]pyridin-7-yl)methyl)-4-(4-methylbenzyl)-1-((2R,3S)-3-(pyrrolidine-1-carbonyl)piperidine-2-carbonyl)pyrrolidine-2-carboxamide] | ∘∘∘ | 200 to 800 | +++ (fold selectivity values greater than 100)
Cc1ccc(C[C@@H]2C[C@@H](C(=O)NCC3CCc4c(cnn4C)C3)N(C(=O)[C@@H]3NCCC[C@@H]3C(=O)N3CCCC3)C2)cc1 (stereo partly drawn) [Example M05874, (2S,4R)-N-((1-methyl-4,5,6,7-tetrahydro-1H-indazol-5-yl)methyl)-4-(4-methylbenzyl)-1-((2R,3S)-3-(pyrrolidine-1-carbonyl)piperidine-2-carbonyl)pyrrolidine-2-carboxamide] | ∘∘∘ | 200 to 800 | +++ (fold selectivity values greater than 100)
COc1ccc(C[C@@H]2C[C@@H](C(=O)NCc3ccc4c(cnn4C)c3)N(C(=O)[C@@H]3NCCC[C@@H]3C(=O)N3CCCC3)C2)cn1 [Example M05875, (2S,4R)-4-((6-methoxypyridin-3-yl)methyl)-N-((1-methyl-1H-indazol-5-yl)methyl)-1-((2R,3S)-3-(pyrrolidine-1-carbonyl)piperidine-2-carbonyl)pyrrolidine-2-carboxamide] | ∘∘∘ | 200 to 800 | +++ (fold selectivity values greater than 100)

Further lines, with some results ahead:

FXa (human)/FXIIa alpha (human) [2] | Ki [3] [nM] | SMILES | Thrombin (human)/FXIIa alpha (human) [1]
∘∘∘ | < 200 | [2H]C([2H])([2H])n1ncc2cc(CNC(=O)[C@@H]3C[C@@H](Cc4ccc(C)cc4)CN3C(=O)[C@@H]3NCCC[C@@H]3C(=O)N3CCCC3)ccc21 [Example M05820, (2S,4R)-N-((1-(methyl-d3)-1H-indazol-5-yl)methyl)-4-(4-methylbenzyl)-1-((2R,3S)-3-(pyrrolidine-1-carbonyl)piperidine-2-carbonyl)pyrrolidine-2-carboxamide] | +++ (fold selectivity values greater than 100)
∘∘∘ | < 200 | CO[C@H]1CCN(C(=O)[C@H]2CCCN[C@H]2C(=O)N2C[C@H](Cc3ccc(C)cc3)C[C@H]2C(=O)NCc2ccc3c(cnn3C)c2)C1 [Example M05837, (2S,4R)-1-((2R,3S)-3-((S)-3-methoxypyrrolidine-1-carbonyl)piperidine-2-carbonyl)-N-((1-methyl-1H-indazol-5-yl)methyl)-4-(4-methylbenzyl)pyrrolidine-2-carboxamide] | +++ (fold selectivity values greater than 100)
∘∘∘ | < 200 | Cc1ccc(C[C@@H]2C[C@@H](C(=O)NCc3ccc4c(cnn4C)c3)N(C(=O)[C@@H]3NCCC[C@@H]3C(=O)N3CCCN(C)CC3)C2)cc1 [Example M05840, (2S,4R)-1-((2R,3S)-3-(4-methyl-1,4-diazepane-1-carbonyl)piperidine-2-carbonyl)-N-((1-methyl-1H-indazol-5-yl)methyl)-4-(4-methylbenzyl)pyrrolidine-2-carboxamide] | +++ (fold selectivity values greater than 100)
∘∘∘ | < 200 | CCO[C@H]1CCN(C(=O)[C@H]2CCCN[C@H]2C(=O)N2C[C@H](Cc3ccc(C)cc3)C[C@H]2C(=O)NCc2ccc3c(cnn3C)c2)C1 [Example M05853, (2S,4R)-1-((2R,3S)-3-((S)-3-ethoxypyrrolidine-1-carbonyl)piperidine-2-carbonyl)-N-((1-methyl-1H-indazol-5-yl)methyl)-4-(4-methylbenzyl)pyrrolidine-2-carboxamide] | +++ (fold selectivity values greater than 100)
∘∘∘ | < 200 | Cn1nnc2cc(CNC(=O)[C@@H]3C[C@@H](Cc4ccc(C(F)(F)F)nc4)CN3C(=O)[C@@H]3NCCC[C@@H]3C(=O)N3CCCC3)ccc21 [Example M05863, (2S,4R)-N-((1-methyl-1H-benzo[d][1,2,3]triazol-5-yl)methyl)-1-((2R,3S)-3-(pyrrolidine-1-carbonyl)piperidine-2-carbonyl)-4-((6-(trifluoromethyl)pyridin-3-yl)methyl)pyrrolidine-2-carboxamide] | +++ (fold selectivity values greater than 100)
∘∘∘ | < 200 | Cn1nnc2cc(CNC(=O)[C@@H]3C[C@@H](Cc4cccc5ccccc45)CN3C(=O)[C@@H]3NCCC[C@@H]3C(=O)N3CCCC3)ccc21 [Example M05877, (2S,4R)-N-((1-methyl-1H-benzo[d][1,2,3]triazol-5-yl)methyl)-4-(naphthalen-1-ylmethyl)-1-((2R,3S)-3-(pyrrolidine-1-carbonyl)piperidine-2-carbonyl)pyrrolidine-2-carboxamide] | +++ (fold selectivity values greater than 100)

Source: US20240294498A1, “FACTOR XIIA INHIBITORS” (Lunac Therapeutics Ltd, priority 2021, published 2024)
